Numbers after ± are expanded uncertainties.
Test: xn = mol fraction of the nth substance listed
Settings: 100 kPa, Liquid; for mass density: Vibrating tube method; for viscosity: Capillary tube (Ostwald / Ubbelohde) method

O=C1CCCO1 [γ-butyrolactone] + CN1CCCC1=O
Settings	mass density [kg/m3]	viscosity [mPa·s]
293.15 K, x2 = 0	1129.2 ± 1.6	–
293.15 K, x2 = 0.1011	1117.01 ± 1.7	–
293.15 K, x2 = 0.1484	1111.57 ± 1.6	–
293.15 K, x2 = 0.2506	1100.29 ± 1.6	–
293.15 K, x2 = 0.3027	1094.76 ± 1.6	–
293.15 K, x2 = 0.4002	1084.79 ± 1.6	–
293.15 K, x2 = 0.4953	1075.51 ± 1.6	–
293.15 K, x2 = 0.5983	1065.98 ± 1.6	–
293.15 K, x2 = 0.6977	1057.25 ± 1.6	–
293.15 K, x2 = 0.8022	1048.51 ± 1.6	–
293.15 K, x2 = 0.851	1044.56 ± 1.6	–
293.15 K, x2 = 0.9418	1037.29 ± 1.6	–
298.15 K, x2 = 0	1124.26 ± 1.6	1.73 ± 0.04
298.15 K, x2 = 0.1002	–	1.719 ± 0.037
298.15 K, x2 = 0.1011	1112.14 ± 1.7	–
298.15 K, x2 = 0.1484	1106.72 ± 1.6	–
298.15 K, x2 = 0.2002	–	1.71 ± 0.036
298.15 K, x2 = 0.2506	1095.51 ± 1.6	–
298.15 K, x2 = 0.3027	1090 ± 1.6	–
298.15 K, x2 = 0.3078	–	1.701 ± 0.036
298.15 K, x2 = 0.3999	–	1.694 ± 0.036
298.15 K, x2 = 0.4002	1080.08 ± 1.6	–
298.15 K, x2 = 0.4953	1070.84 ± 1.6	–
298.15 K, x2 = 0.4998	–	1.689 ± 0.036
298.15 K, x2 = 0.5983	1061.35 ± 1.6	–
298.15 K, x2 = 0.6003	–	1.685 ± 0.036
298.15 K, x2 = 0.6977	1052.68 ± 1.6	–
298.15 K, x2 = 0.7002	–	1.682 ± 0.036
298.15 K, x2 = 0.8011	–	1.679 ± 0.036
298.15 K, x2 = 0.8022	1043.99 ± 1.6	–
298.15 K, x2 = 0.851	1040.04 ± 1.6	–
298.15 K, x2 = 0.8998	–	1.678 ± 0.036
298.15 K, x2 = 0.9418	1032.8 ± 1.6	–
303.15 K, x2 = 0	1119.33 ± 1.6	1.63 ± 0.04
303.15 K, x2 = 0.1002	–	1.614 ± 0.034
303.15 K, x2 = 0.1011	1107.27 ± 1.6	–
303.15 K, x2 = 0.1484	1101.88 ± 1.6	–
303.15 K, x2 = 0.2002	–	1.601 ± 0.034
303.15 K, x2 = 0.2506	1090.7 ± 1.6	–
303.15 K, x2 = 0.3027	1085.22 ± 1.6	–
303.15 K, x2 = 0.3078	–	1.587 ± 0.034
303.15 K, x2 = 0.3999	–	1.577 ± 0.034
303.15 K, x2 = 0.4002	1075.32 ± 1.6	–
303.15 K, x2 = 0.4953	1066.12 ± 1.6	–
303.15 K, x2 = 0.4998	–	1.568 ± 0.033
303.15 K, x2 = 0.5983	1056.67 ± 1.6	–
303.15 K, x2 = 0.6003	–	1.559 ± 0.033
303.15 K, x2 = 0.6977	1048.03 ± 1.6	–
303.15 K, x2 = 0.7002	–	1.552 ± 0.033
303.15 K, x2 = 0.8011	–	1.546 ± 0.033
303.15 K, x2 = 0.8022	1039.38 ± 1.6	–
303.15 K, x2 = 0.851	1035.46 ± 1.6	–
303.15 K, x2 = 0.8998	–	1.541 ± 0.033
303.15 K, x2 = 0.9418	1028.25 ± 1.6	–
308.15 K, x2 = 0	1114.31 ± 1.6	1.52 ± 0.03
308.15 K, x2 = 0.1002	–	1.504 ± 0.032
308.15 K, x2 = 0.1011	1102.38 ± 1.6	–
308.15 K, x2 = 0.1484	1097.05 ± 1.6	–
308.15 K, x2 = 0.2002	–	1.49 ± 0.032
308.15 K, x2 = 0.2506	1085.98 ± 1.6	–
308.15 K, x2 = 0.3027	1080.55 ± 1.6	–
308.15 K, x2 = 0.3078	–	1.477 ± 0.031
308.15 K, x2 = 0.3999	–	1.468 ± 0.031
308.15 K, x2 = 0.4002	1070.75 ± 1.6	–
308.15 K, x2 = 0.4953	1061.64 ± 1.6	–
308.15 K, x2 = 0.4998	–	1.458 ± 0.031
308.15 K, x2 = 0.5983	1052.28 ± 1.6	–
308.15 K, x2 = 0.6003	–	1.45 ± 0.031
308.15 K, x2 = 0.6977	1043.71 ± 1.6	–
308.15 K, x2 = 0.7002	–	1.443 ± 0.031
308.15 K, x2 = 0.8011	–	1.437 ± 0.031
308.15 K, x2 = 0.8022	1035.14 ± 1.6	–
308.15 K, x2 = 0.851	1031.26 ± 1.6	–
308.15 K, x2 = 0.8998	–	1.433 ± 0.031
308.15 K, x2 = 0.9418	1024.11 ± 1.6	–
313.15 K, x2 = 0	1109.23 ± 1.6	1.42 ± 0.03
313.15 K, x2 = 0.1002	–	1.404 ± 0.03
313.15 K, x2 = 0.1011	1097.36 ± 1.6	–
313.15 K, x2 = 0.1484	1092.04 ± 1.6	–
313.15 K, x2 = 0.2002	–	1.391 ± 0.03
313.15 K, x2 = 0.2506	1081.02 ± 1.6	–
313.15 K, x2 = 0.3027	1075.61 ± 1.6	–
313.15 K, x2 = 0.3078	–	1.379 ± 0.029
313.15 K, x2 = 0.3999	–	1.37 ± 0.029
313.15 K, x2 = 0.4002	1065.84 ± 1.6	–
313.15 K, x2 = 0.4953	1056.76 ± 1.6	–
313.15 K, x2 = 0.4998	–	1.361 ± 0.029
313.15 K, x2 = 0.5983	1047.44 ± 1.6	–
313.15 K, x2 = 0.6003	–	1.354 ± 0.029
313.15 K, x2 = 0.6977	1038.91 ± 1.6	–
313.15 K, x2 = 0.7002	–	1.348 ± 0.029
313.15 K, x2 = 0.8011	–	1.344 ± 0.029
313.15 K, x2 = 0.8022	1030.36 ± 1.6	–
313.15 K, x2 = 0.851	1026.5 ± 1.6	–
313.15 K, x2 = 0.8998	–	1.34 ± 0.029
313.15 K, x2 = 0.9418	1019.36 ± 1.6	–
318.15 K, x2 = 0	1104.1 ± 1.6	1.35 ± 0.03
318.15 K, x2 = 0.1002	–	1.331 ± 0.028
318.15 K, x2 = 0.1011	1092.31 ± 1.6	–
318.15 K, x2 = 0.1484	1087.03 ± 1.6	–
318.15 K, x2 = 0.2002	–	1.316 ± 0.028
318.15 K, x2 = 0.2506	1076.08 ± 1.6	–
318.15 K, x2 = 0.3027	1070.71 ± 1.6	–
318.15 K, x2 = 0.3078	–	1.302 ± 0.028
318.15 K, x2 = 0.3999	–	1.291 ± 0.028
318.15 K, x2 = 0.4002	1061.01 ± 1.6	–
318.15 K, x2 = 0.4953	1051.99 ± 1.6	–
318.15 K, x2 = 0.4998	–	1.28 ± 0.027
318.15 K, x2 = 0.5983	1042.73 ± 1.6	–
318.15 K, x2 = 0.6003	–	1.271 ± 0.027
318.15 K, x2 = 0.6977	1034.27 ± 1.6	–
318.15 K, x2 = 0.7002	–	1.263 ± 0.027
318.15 K, x2 = 0.8011	–	1.256 ± 0.027
318.15 K, x2 = 0.8022	1025.76 ± 1.6	–
318.15 K, x2 = 0.851	1021.91 ± 1.6	–
318.15 K, x2 = 0.8998	–	1.251 ± 0.027
318.15 K, x2 = 0.9418	1014.8 ± 1.6	–
323.15 K, x2 = 0	1098.88 ± 1.6	1.3 ± 0.03
323.15 K, x2 = 0.1002	–	1.278 ± 0.027
323.15 K, x2 = 0.1011	1087.72 ± 1.6	–
323.15 K, x2 = 0.1484	1082 ± 1.6	–
323.15 K, x2 = 0.2002	–	1.261 ± 0.027
323.15 K, x2 = 0.2506	1071.16 ± 1.6	–
323.15 K, x2 = 0.3027	1065.83 ± 1.6	–
323.15 K, x2 = 0.3078	–	1.245 ± 0.027
323.15 K, x2 = 0.3999	–	1.232 ± 0.026
323.15 K, x2 = 0.4002	1056.23 ± 1.6	–
323.15 K, x2 = 0.4953	1047.31 ± 1.6	–
323.15 K, x2 = 0.4998	–	1.219 ± 0.026
323.15 K, x2 = 0.5983	1038.15 ± 1.6	–
323.15 K, x2 = 0.6003	–	1.208 ± 0.026
323.15 K, x2 = 0.6977	1029.76 ± 1.6	–
323.15 K, x2 = 0.7002	–	1.198 ± 0.026
323.15 K, x2 = 0.8011	–	1.189 ± 0.025
323.15 K, x2 = 0.8022	1021.34 ± 1.6	–
323.15 K, x2 = 0.851	1017.51 ± 1.6	–
323.15 K, x2 = 0.8998	–	1.182 ± 0.025
323.15 K, x2 = 0.9418	1010.46 ± 1.6	–

— the NIST ThermoML archive (doi:10.1016/j.jct.2015.08.013)
